US12723063B2, “GIPR-agonist compounds” (Eli Lilly and Company, priority 2019, dated 2026)
*1 amine or outer side, *2 acyl side, *3 side chain or, on linkers, in order; H or OH if unused. Where a SMILES comes first, the peptide text is derived from it. Side-chain parts run from the residue outwards. [ ]: non-standard residue; d: D form. The star is where a group is joined. C20 diacid = O=C(O)CCCCCCCCCCCCCCCCCCC(=O)*; αMePhe(2-F) = C[C@](N)(Cc1ccccc1F)C(=O)O; γGlu = O=C(O)[C@H](CCC(=O)[*:2])N[*:1]; αMeF = C[C@](N)(Cc1ccccc1)C(=O)O; 4Pal = N[C@@H](Cc1ccncc1)C(=O)O; αMeL = CC(C)C[C@](C)(N)C(=O)O; AEEA = NCCOCCOCC(=O)O; Aib = CC(C)(N)C(=O)O

Target: T1, human GcgR (Homo sapiens, UniProt P47871)
T1 construct: expressed in transfected cells; crude membranes
T1 sequence (P47871 26-477): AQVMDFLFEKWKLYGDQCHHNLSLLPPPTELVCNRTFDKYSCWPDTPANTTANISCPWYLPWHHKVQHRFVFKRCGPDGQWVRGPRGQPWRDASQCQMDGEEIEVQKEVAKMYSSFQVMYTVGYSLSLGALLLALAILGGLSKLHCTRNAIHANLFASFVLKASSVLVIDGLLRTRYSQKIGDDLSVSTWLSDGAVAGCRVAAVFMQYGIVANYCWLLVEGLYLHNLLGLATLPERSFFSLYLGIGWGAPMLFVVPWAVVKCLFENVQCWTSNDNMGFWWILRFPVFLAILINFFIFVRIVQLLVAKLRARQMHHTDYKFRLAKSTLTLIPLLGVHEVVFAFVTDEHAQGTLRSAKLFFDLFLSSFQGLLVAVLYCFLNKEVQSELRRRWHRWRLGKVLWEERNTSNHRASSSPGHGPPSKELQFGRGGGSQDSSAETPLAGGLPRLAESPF
Experiment: [125I]-Glucagon binding, SPA with WGA beads, 0.1% bacitracin
Details: geometric mean, read-out: hGcgR Ki
Procedure, shortened: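 SPA competition binding with WGA beads on crude membranes from HEK293 cells stably expressing hGcgR. Buffer: 25 mM HEPES pH 7.4, 2.5 mM CaCl2, 1 mM MgCl2, 0.1% bacitracin, 0.003% Tween-20; 10-point 3-fold dilutions, NSB with 1 μM Gcg.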

SMILES	Ki [nM]
CC[C@H](C)[C@H](NC(=O)[C@H](CO)NC(=O)[C@H](Cc1ccc(O)cc1)NC(=O)[C@H](CC(=O)O)NC(=O)[C@H](CO)NC(=O)[C@@H](NC(=O)[C@](C)(Cc1ccccc1F)NC(=O)[C@@H](NC(=O)CNC(=O)[C@H](CCC(=O)O)NC(=O)C(C)(C)NC(=O)[C@@H](N)Cc1ccc(O)cc1)[C@@H](C)O)[C@@H](C)CC)C(=O)N[C@@](C)(CC(C)C)C(=O)N[C@@H](CC(C)C)C(=O)N[C@@H](CC(=O)O)C(=O)N[C@@H](CCCCN)C(=O)N[C@@H](CCCCNC(=O)COCCOCCNC(=O)COCCOCCNC(=O)CC[C@H](NC(=O)CCCCCCCCCCCCCCCCCCC(=O)O)C(=O)O)C(=O)N[C@@H](Cc1c[nH]cn1)C(=O)N[C@@H](CCC(N)=O)C(=O)NC(C)(C)C(=O)N[C@@H](CC(=O)O)C(=O)N[C@@H](Cc1ccccc1)C(=O)N[C@H](C(=O)N[C@@H](CCC(=O)O)C(=O)N[C@@H](Cc1ccncc1)C(=O)N[C@@H](CC(C)C)C(=O)N[C@@H](CC(C)C)C(=O)N[C@@H](C)C(=O)NCC(=O)NCC(=O)N1CCC[C@H]1C(=O)N[C@@H](CO)C(=O)N[C@@H](CO)C(=O)NCC(=O)N[C@@H](C)C(=O)N1CCC[C@H]1C(=O)N1CCC[C@H]1C(=O)N1CCC[C@H]1C(=O)N[C@@H](CO)C(N)=O)C(C)C [Example 51] (H-Y[Aib]EGT[αMePhe(2-F)]ISDYSI[αMeL]LDKK([AEEA-AEEA-γGlu-C20 diacid])HQ[Aib]DFVE[4Pal]LLAGGPSSGAPPPS-NH2)	26.7
CC[C@H](C)[C@H](NC(=O)[C@H](CO)NC(=O)[C@H](Cc1ccc(O)cc1)NC(=O)[C@H](CC(=O)O)NC(=O)[C@H](CO)NC(=O)[C@@H](NC(=O)[C@](C)(Cc1ccccc1)NC(=O)[C@@H](NC(=O)CNC(=O)[C@H](CCC(=O)O)NC(=O)C(C)(C)NC(=O)[C@@H](N)Cc1ccc(O)cc1)[C@@H](C)O)[C@@H](C)CC)C(=O)N[C@@](C)(CC(C)C)C(=O)N[C@@H](CC(C)C)C(=O)N[C@@H](CC(=O)O)C(=O)N[C@@H](CCCCN)C(=O)N[C@@H](CCCCNC(=O)COCCOCCNC(=O)COCCOCCNC(=O)CC[C@H](NC(=O)CCCCCCCCCCCCCCCCCCC(=O)O)C(=O)O)C(=O)N[C@@H](Cc1c[nH]cn1)C(=O)N[C@@H](CCC(N)=O)C(=O)NC(C)(C)C(=O)N[C@@H](CCC(=O)O)C(=O)N[C@@H](Cc1ccccc1)C(=O)N[C@H](C(=O)N[C@@H](CCC(=O)O)C(=O)N[C@@H](Cc1ccncc1)C(=O)N[C@@H](CC(C)C)C(=O)N[C@@H](CC(C)C)C(=O)N[C@@H](C)C(=O)N[C@@H](CCC(N)=O)C(=O)NCC(=O)N1CCC[C@H]1C(=O)N[C@@H](CO)C(=O)N[C@@H](CO)C(=O)NCC(=O)N[C@@H](C)C(=O)N1CCC[C@H]1C(=O)N1CCC[C@H]1C(=O)N1CCC[C@H]1C(=O)N[C@@H](CO)C(N)=O)C(C)C [Example 60] (H-Y[Aib]EGT[αMeF]ISDYSI[αMeL]LDKK([AEEA-AEEA-γGlu-C20 diacid])HQ[Aib]EFVE[4Pal]LLAQGPSSGAPPPS-NH2)	26.2
CC[C@H](C)[C@H](NC(=O)[C@H](Cc1ccccc1)NC(=O)[C@@H](NC(=O)CNC(=O)[C@H](CCC(=O)O)NC(=O)C(C)(C)NC(=O)[C@@H](N)Cc1ccc(O)cc1)[C@@H](C)O)C(=O)N[C@@H](CO)C(=O)N[C@@H](CC(=O)O)C(=O)N[C@@H](Cc1ccc(O)cc1)C(=O)N[C@@H](CO)C(=O)N[C@H](C(=O)N[C@@](C)(CC(C)C)C(=O)N[C@@H](CC(C)C)C(=O)N[C@@H](CC(=O)O)C(=O)N[C@@H](CCCCN)C(=O)N[C@@H](CCCCNC(=O)COCCOCCNC(=O)COCCOCCNC(=O)CC[C@H](NC(=O)CCCCCCCCCCCCCCCCCCC(=O)O)C(=O)O)C(=O)N[C@@H](Cc1c[nH]cn1)C(=O)N[C@@H](CCC(N)=O)C(=O)NC(C)(C)C(=O)N[C@@H](CC(=O)O)C(=O)N[C@@H](Cc1ccccc1)C(=O)N[C@H](C(=O)N[C@@H](CCC(=O)O)C(=O)N[C@@H](Cc1ccc(O)cc1)C(=O)N[C@@H](CC(C)C)C(=O)N[C@@H](CC(C)C)C(=O)N[C@@H](CCC(=O)O)C(=O)N[C@H](C(=O)NCC(=O)N1CCC[C@H]1C(=O)N[C@@H](CO)C(=O)N[C@@H](CO)C(=O)NCC(=O)N[C@@H](C)C(=O)N1CCC[C@H]1C(=O)N1CCC[C@H]1C(=O)N1CCC[C@H]1C(=O)N[C@@H](CO)C(N)=O)[C@@H](C)O)C(C)C)[C@@H](C)CC [Example 66] (H-Y[Aib]EGTFISDYSI[αMeL]LDKK([AEEA-AEEA-γGlu-C20 diacid])HQ[Aib]DFVEYLLETGPSSGAPPPS-NH2)	279
CC[C@H](C)[C@H](NC(=O)[C@H](CC(C)C)NC(=O)[C@@H](NC(=O)CNC(=O)[C@H](CCC(=O)O)NC(=O)C(C)(C)NC(=O)[C@@H](N)Cc1ccc(O)cc1)[C@@H](C)O)C(=O)N[C@@H](CO)C(=O)N[C@@H](CC(=O)O)C(=O)N[C@@H](Cc1ccc(O)cc1)C(=O)N[C@@H](CO)C(=O)N[C@H](C(=O)N[C@@](C)(CC(C)C)C(=O)N[C@@H](CC(C)C)C(=O)N[C@@H](CC(=O)O)C(=O)N[C@@H](CCCCN)C(=O)N[C@@H](CCCCNC(=O)COCCOCCNC(=O)COCCOCCNC(=O)CC[C@H](NC(=O)CCCCCCCCCCCCCCCCCCC(=O)O)C(=O)O)C(=O)N[C@@H](Cc1c[nH]cn1)C(=O)N[C@@H](CCC(N)=O)C(=O)NC(C)(C)C(=O)N[C@@H](CCC(=O)O)C(=O)N[C@@H](Cc1ccccc1)C(=O)N[C@H](C(=O)N[C@@H](CCC(=O)O)C(=O)N[C@@H](Cc1ccc(O)cc1)C(=O)N[C@@H](CC(C)C)C(=O)N[C@@H](CC(C)C)C(=O)N[C@@H](CCC(=O)O)C(=O)N[C@H](C(=O)NCC(=O)N1CCC[C@H]1C(=O)N[C@@H](CO)C(=O)N[C@@H](CO)C(=O)NCC(=O)N[C@@H](C)C(=O)N1CCC[C@H]1C(=O)N1CCC[C@H]1C(=O)N1CCC[C@H]1C(=O)N[C@@H](CO)C(N)=O)[C@@H](C)O)C(C)C)[C@@H](C)CC [Example 72] (H-Y[Aib]EGTLISDYSI[αMeL]LDKK([AEEA-AEEA-γGlu-C20 diacid])HQ[Aib]EFVEYLLETGPSSGAPPPS-NH2)	837
CC[C@H](C)[C@H](NC(=O)[C@H](Cc1ccccc1)NC(=O)[C@@H](NC(=O)CNC(=O)[C@H](CCC(=O)O)NC(=O)C(C)(C)NC(=O)[C@@H](N)Cc1ccc(O)cc1)[C@@H](C)O)C(=O)N[C@@H](CO)C(=O)N[C@@H](CC(=O)O)C(=O)N[C@@H](Cc1ccc(O)cc1)C(=O)N[C@@H](CO)C(=O)N[C@H](C(=O)N[C@@](C)(CC(C)C)C(=O)N[C@@H](CC(C)C)C(=O)N[C@@H](CC(=O)O)C(=O)N[C@@H](CCCCN)C(=O)N[C@@H](CCCCNC(=O)COCCOCCNC(=O)COCCOCCNC(=O)CC[C@H](NC(=O)CCCCCCCCCCCCCCCCCCC(=O)O)C(=O)O)C(=O)N[C@@H](Cc1c[nH]cn1)C(=O)N[C@@H](CCC(N)=O)C(=O)NC(C)(C)C(=O)N[C@@H](CCC(=O)O)C(=O)N[C@@H](Cc1ccccc1)C(=O)N[C@H](C(=O)N[C@@H](CCC(=O)O)C(=O)N[C@@H](Cc1ccncc1)C(=O)N[C@@H](CC(C)C)C(=O)N[C@@H](CC(C)C)C(=O)N[C@@H](C)C(=O)N[C@H](C(=O)NCC(=O)N1CCC[C@H]1C(=O)N[C@@H](CO)C(=O)N[C@@H](CO)C(=O)NCC(=O)N[C@@H](C)C(=O)N1CCC[C@H]1C(=O)N1CCC[C@H]1C(=O)N1CCC[C@H]1C(=O)N[C@@H](CO)C(N)=O)[C@@H](C)O)C(C)C)[C@@H](C)CC [Example 58] (H-Y[Aib]EGTFISDYSI[αMeL]LDKK([AEEA-AEEA-γGlu-C20 diacid])HQ[Aib]EFVE[4Pal]LLATGPSSGAPPPS-NH2)	418
CC[C@H](C)[C@H](NC(=O)[C@H](Cc1ccccc1)NC(=O)[C@@H](NC(=O)CNC(=O)[C@H](CCC(=O)O)NC(=O)C(C)(C)NC(=O)[C@@H](N)Cc1ccc(O)cc1)[C@@H](C)O)C(=O)N[C@@H](CO)C(=O)N[C@@H](CC(=O)O)C(=O)N[C@@H](Cc1ccc(O)cc1)C(=O)N[C@@H](CO)C(=O)N[C@H](C(=O)N[C@@](C)(CC(C)C)C(=O)N[C@@H](CC(C)C)C(=O)N[C@@H](CC(=O)O)C(=O)N[C@@H](CCCCN)C(=O)N[C@@H](CCCCNC(=O)COCCOCCNC(=O)COCCOCCNC(=O)CC[C@H](NC(=O)CCCCCCCCCCCCCCCCCCC(=O)O)C(=O)O)C(=O)N[C@@H](Cc1c[nH]cn1)C(=O)N[C@@H](CCC(N)=O)C(=O)NC(C)(C)C(=O)N[C@@H](CC(=O)O)C(=O)N[C@@H](Cc1ccccc1)C(=O)N[C@H](C(=O)N[C@@H](CCC(=O)O)C(=O)N[C@@H](Cc1ccc(O)cc1)C(=O)N[C@@H](CC(C)C)C(=O)N[C@@H](CC(C)C)C(=O)N[C@@H](CCC(=O)O)C(=O)N[C@@H](C)C(=O)NCC(=O)N1CCC[C@H]1C(=O)N[C@@H](CO)C(=O)N[C@@H](CO)C(=O)NCC(=O)N[C@@H](C)C(=O)N1CCC[C@H]1C(=O)N1CCC[C@H]1C(=O)N1CCC[C@H]1C(=O)N[C@@H](CO)C(N)=O)C(C)C)[C@@H](C)CC [Example 68] (H-Y[Aib]EGTFISDYSI[αMeL]LDKK([AEEA-AEEA-γGlu-C20 diacid])HQ[Aib]DFVEYLLEAGPSSGAPPPS-NH2)	290
CC[C@H](C)[C@H](NC(=O)[C@H](CO)NC(=O)[C@H](Cc1ccc(O)cc1)NC(=O)[C@H](CC(=O)O)NC(=O)[C@H](CO)NC(=O)[C@@H](NC(=O)[C@](C)(Cc1ccccc1)NC(=O)[C@@H](NC(=O)CNC(=O)[C@H](CCC(=O)O)NC(=O)C(C)(C)NC(=O)[C@@H](N)Cc1ccc(O)cc1)[C@@H](C)O)[C@@H](C)CC)C(=O)N[C@@](C)(CC(C)C)C(=O)N[C@@H](CC(C)C)C(=O)N[C@@H](CC(=O)O)C(=O)N[C@@H](CCCCN)C(=O)N[C@@H](CCCCNC(=O)COCCOCCNC(=O)COCCOCCNC(=O)CC[C@H](NC(=O)CCCCCCCCCCCCCCCCCCC(=O)O)C(=O)O)C(=O)N[C@@H](Cc1c[nH]cn1)C(=O)N[C@@H](CCC(N)=O)C(=O)NC(C)(C)C(=O)N[C@@H](CCC(=O)O)C(=O)N[C@@H](Cc1ccccc1)C(=O)N[C@H](C(=O)N[C@@H](CCC(=O)O)C(=O)N[C@@H](Cc1ccncc1)C(=O)N[C@@H](CC(C)C)C(=O)N[C@@H](CC(C)C)C(=O)N[C@@H](C)C(=O)N[C@@H](C)C(=O)NCC(=O)N1CCC[C@H]1C(=O)N[C@@H](CO)C(=O)N[C@@H](CO)C(=O)NCC(=O)N[C@@H](C)C(=O)N1CCC[C@H]1C(=O)N1CCC[C@H]1C(=O)N1CCC[C@H]1C(=O)N[C@@H](CO)C(N)=O)C(C)C [Example 62] (H-Y[Aib]EGT[αMeF]ISDYSI[αMeL]LDKK([AEEA-AEEA-γGlu-C20 diacid])HQ[Aib]EFVE[4Pal]LLAAGPSSGAPPPS-NH2)	31.3
